Data: patent publication US20240201205A1, “METHOD FOR DETECTING NEUROLOGICAL DISEASES USING SUPRAMOLECULE POLYMER THERAPEUTICS” (The Regents of the University of California, priority 2022, published 2024)

Columns and labels:
[1] = tested on: Alzheimer's disease tau paired-helical filaments (PHFs); experiment: Cryo-EM co-structure of GTP-1 with Alzheimer's disease tau paired-helical filaments; assay type: binding, human; settings: AD patient filaments
Procedure: Samples were incubated with 20 uM GTP-1 prior to vitrification. […] The micrograph images and their 2D classification reveal well-resolved filaments primarily in the PHF conformation, with crossover distances ranging from 700-800 Å. A minor population of straight filaments (SF) was also identified; however, further structural characterization was not feasible due to limited abundance. […] The PHF structure is comprised of two protofilaments related by two-fold symmetry with a 2.37 Å rise and 179.45° twist, consistent with previously reported structures of PHFs prepared from AD brains (13, 15).
Tau PHF filament purification. Filament purification was based on Fitzpatrick et al., 2017^1. […]
Cryo-EM sample preparation and data collection. […] For the tau PHF, 3 μL of purified filaments mixed with GTP-1 was added to a glow-discharged 200 mesh 1.2/1.3R Au Quantifoil grid for 10 seconds before blotting for 2 seconds, and then a second 3 μL aliquot was added for 3 seconds and blotted for 1 second before being plunge frozen in liquid ethane using a FEI Vitrobot Mark IV (Thermo Fisher Scientific). For the synuclein ligands, 3 μL of purified filaments mixed with compound was added to a 200 mesh 1.2/1.3R Au Quantifoil grid coated with a 2 nm thick layer of carbon, which had not been glow discharged. […]

[2] = molecular target: T1, α-synuclein fibrils isolated from an MSA patient sample (Homo sapiens, UniProt P37840); experiment: Cryo-EM co-structures of compounds with α-synuclein fibrils from MSA patient; assay type: binding; settings: for binding to α-synuclein fibrils (cryo-EM co-structure): fibrils from MSA patient sample, 20 μM ligand
T1 construct: fresh-frozen tissue from the cerebellum of patients clinically and neuropathologically diagnosed with MSA; from tissue; host or cells: cerebellum of MSA patients (sarkosyl-insoluble filament preparation)
Procedure: MSA filament purification. Filament purification was based on Schweigenhauser et al., 2020^2. Briefly, 1-2 g of fresh-frozen tissue from the cerebellum of patients clinically and neuropathologically diagnosed with MSA was homogenized at 20 mL/g of tissue in 10 mM Tris-HCl (pH 7.4), 800 mM NaCl, 1 mM EGTA, and 10% sucrose. A final concentration of 1% N-laurosarcosinate (w/v) was added to the homogenates, and these mixtures were incubated at 37° C. for 30 minutes. Homogenates were then centrifuged at 10,000 g for 10 minutes, and the supernatant was kept and then centrifuged at 100,000 g for 20 minutes. The pellets were resuspended at 500 μL/g of frozen tissue in 10 mM Tris-HCl (pH 7.4), 800 mM NaCl, 1 mM EGTA, and 10% sucrose. This was followed by another centrifugation at 3,000 g for 5 minutes. The supernatant was kept and diluted threefold with 50 mM Tris-HCl (pH 7.4), 150 mM NaCl, 10% sucrose, and 2% sarkosyl, followed by another centrifugation at 150,000 g for 1 hour. The final pellet resuspended in 30 mM Tris-HCl (pH 7.4) at a concentration of 100 μL/g frozen tissue.
Cryo-EM sample preparation and data collection. Purified frontal cortex and cerebellum tissue was incubated with 20 μM ligand for 45 minutes prior to freezing. For the tau PHF, 3 μL of purified filaments mixed with GTP-1 was added to a glow-discharged 200 mesh 1.2/1.3R Au Quantifoil grid for 10 seconds before blotting for 2 seconds, and then a second 3 μL aliquot was added for 3 seconds and blotted for 1 second before being plunge frozen in liquid ethane using a FEI Vitrobot Mark IV (Thermo Fisher Scientific). For the synuclein ligands, 3 μL of purified filaments mixed with compound was added to a 200 mesh 1.2/1.3R Au Quantifoil grid coated with a 2 nm thick layer of carbon, which had not been glow discharged. After 30 seconds, grids were blotted for 7.5 seconds at room temperature and 100% humidity. Grids were plunge frozen in liquid ethane using a FEI Vitrobot Mark IV. […] A defocus range of 0.8 to 1.8 μm was used with a total exposure time of 2.024 seconds fractionated into 0.025 seconds subframes. The total dose for each movie was 46 electrons/Å^2. Movies were motion-corrected using MotionCor2^3 in Scipion^4 and were Fourier cropped by a factor of 2 to a final pixel size of 0.834 Å per pixel.
Image processing. All image processing was done in RELION 4^5, and the same workflow was used for each dataset. Dose-weighted summed micrographs were imported into RELION 4. The contrast transfer function was estimated using CTFFIND-4.1^6. Filaments were manually picked and then segments were extracted with a box size of 900 pixels downscaled to 300 pixels. Contaminants and segments contributing to straight filaments were separated out using reference-free 2D class averaging. The remaining segments were re-extracted with a box size of 288 pixels without downscaling. An initial model was generated from a cylinder in RELION. One or more rounds of 3D classification with image alignment were performed, with helical rise and […] parameters fixed to eliminate obvious junk particles. One or more rounds of 3D auto-refinement was run using the best map from 3D classification low-pass filtered to 10 Å, allowing rise and twist parameters to vary. Maps were sharpened using the standard post-processing procedures in RELION.
Model building, refinement, and analysis. Prior to ligand placement, a single strand of a previously solved MSA or tau PHF filament structure^2 (PDB: 6XYQ) was refined against the density using Phenix^7. Refinement of the ligand binding pocket was done in COOT^8. Ligands were placed by hand in the density using Chimera^9. This model was then translated to give a stack spanning 5 rungs.

binding site on α-synuclein ([2]; cryo-EM, residues of SEQ ID NO: 9)	Structure (SMILES)	binding site on tau PHF [1]	binding to α-synuclein fibrils (cryo-EM co-structure) [2]
	FCCC1CCN(c2ccn3c(n2)nc2ccccc23)CC1 [GTP-1]	bound to a solvent exposed cleft (residues 351-360)	
bound to residues 86-99 of α-synuclein	CNC(=O)c1ncc2c(-c3ccnc(C(C)(F)F)n3)nn(-c3ccc(Cl)cc3)c2n1 [Compound 22, 1-(4-chlorophenyl)-3-(2-(1,1-difluoroethyl)pyrimidin-4-yl)-N-methyl-1H-pyrazolo[3,4-d]pyrimidine-6-carboxamide]		bound to fibrils isolated from an MSA patient sample
	CNc1nc(=O)n(-c2nc(-c3cc(C)cc(C)n3)oc2-c2ccc(F)c(F)c2)cc1F [compound 294]		bound to fibrils isolated from an MSA patient sample
	O=c1nc2c(ccn2C(F)(F)F)cn1-c1nc(-c2ccnc(C3CC3)n2)oc1-c1ccc(F)cc1 [compound 293]		bound to fibrils isolated from an MSA patient sample
